# From patent US20250186336A1, “METHOD OF TREATING WET AGE-RELATED MACULAR DEGENERATION” (EYEPOINT PHARMACEUTICALS, INC., priority 2022, published 2025)
# Where two headings read alike, the source gives them in different places.
# Experiments:
# [1] = Intravitreal pharmacokinetic study of vorolanib insert (Example 5A); format: in vivo, Male Dutch Belted Rabbits; details: for vitreous level of vorolanib at steady state: intravitreal; for AUC(0-t): read-out: vitreous AUClast
# Description: An Intravitreal Pharmacokinetic Study was performed in Male Dutch Belted Rabbits. The objective of this study was to characterize the plasma and ocular tissue pharmacokinetics of a vorolanib insert following bilateral intravitreal injection on Day 1. Animals were evaluated up to 24 months following placement of the intravitreal insert.
# The low dose group (1) received 3 inserts per eye for a total dose of 630 μg per eye. The high dose group (2) animals received 6 inserts per eye given in 2 separate injections (3 inserts per injection) for a total dose of 1,260 μg per eye.
# Prior to each scheduled sacrifice point, one whole blood sample was collected from a targeted 2 animals per group via puncture of a marginal ear vein. Samples were tested for levels of vorolanib and its metabolite. Two animals per group were euthanized on day 1 at 6, 12, 24 and 48 hours, on days 7 and 14, and at 1, 2, 4, 6, 8, 16 and 24 months.
# [2] = Solubility of vorolanib in water; format: physicochemical
# Excerpt: Vorolanib has the chemical designation (S,Z)—N-(1-(Dimethylcarbamoyl) pyrrolidin-3-yl)-5-((5-fluoro-2-oxoindolin-3-ylidene)methyl)-2,4-dimethyl-1H-pyrrole-3-carboxamide. Synonyms include the term “X-82”. The molecular formula is C23H26FN5O3. […]
# [3] = 18 month intravitreal toxicity and plasma pharmacokinetics study (Example 6); format: in vivo
# Description: An 18 month intravitreal toxicity study for the insert was also performed in 80 Dutch Belted rabbits (40 male and 40 female). Animals were evaluated for a period of 6 and 18 months following placement of intravitreal inserts. The objective was to characterize the ocular toxicity, plasma pharmacokinetics and biodegradation of a vorolanib insert following bilateral intravitreal injection.
# The tables below describe the group assignments and dose levels. For the toxicology groups, animals were sacrificed at 6 months and 18 months. For the plasma pharmacokinetic analysis, blood samples were collected at Days 1, 3, and 7 and then 1, 2, 3, 4, 5, 6, 12, 14, 16 and 18 Months.
# The placebo group (1) animals received two placebo inserts by injection in each eye. The low dose group (2) animals received 2 inserts in each eye. The mid dose group (3) animals received 3 inserts in each eye given in 2 separate injections. The high dose group (4) animals received 4 inserts in each eye given in 2 separate injections (2 inserts/injection). The highest dose group (5) animals received 6 inserts in each eye given in 2 separate injections (3 inserts/injection).
# At each scheduled timepoint, whole blood was collected via puncture of a marginal ear vein. Samples were analyzed for clinical pathology and plasma pharmacokinetics. Animals were euthanized according to the schedules described above. […]
# [4] = Intravitreal pharmacokinetic study of vorolanib insert (Example 5B); format: in vivo, Dutch Belted Rabbits
# Description: Another Intravitreal Pharmacokinetic Study was performed in Dutch Belted Rabbits. The objective of this study was to evaluate the plasma and ocular pharmacokinetics of a vorolanib insert following bilateral intravitreal injection in rabbit eyes. Animals were evaluated up to 12 months following placement of the intravitreal insert.
# Dutch Belted rabbits were administered vorolanib inserts in each eye by intravitreal injection. Group 1 eyes received 1 insert containing 643 μg of vorolanib, and Group 2 eyes received 2 inserts containing 900 μg total. Blood samples were collected at 2, 7, 14, and 28 days and then once monthly for months 2-12. Inserts were recovered at 2, 7, and 14 days and then at 1, 2, 4, 6, 8, 10, and 12 months. Residual vorolanib levels were determined in all explants using high-performance liquid chromatography. The vorolanib release rate was estimated based on residual levels in the explants. Plasma and ocular tissues were separated and analyzed for vorolanib and its metabolite using liquid chromatography mass spectrometry.
# [5] = system: Laser-Induced Choroidal Neovascularization (CNV); experiment: Swine model of laser-induced choroidal neovascularization, safety and efficacy (Example 7); format: in vivo
# Description: Safety and efficacy of a vorolanib insert were evaluated in a Swine (Mini-pig) Model of Laser-Induced Choroidal Neovascularization (CNV). The primary objective of this study was to evaluate the long-term safety and inhibition of vascular permeability and neovascularization in a laser-induced model of choroidal neovascularization (CNV) using a vorolanib insert in swine.
# On the day of lasering (Groups 1-4) animals were treated with an 810 nm diode laser delivered through an indirect ophthalmoscope. Approximately 6 single laser spots were placed between retinal veins. Both eyes underwent laser treatment according to the schedule in the table above.
# On the day of intravitreal injections animals were anesthetized and the eyes were aseptically prepared. […] Animals were allowed to recover normally from the procedure. The pigs were given a topical drop of antibiotic ophthalmic solution 4-6 hours later, and then BID for 2 additional days with at least 6 hours between doses. Animals were dosed on either Day 0 immediately following laser CNV induction or 7 days prior to laser CNV induction according to the schedule in the table above. […]
# At time points indicated by the experimental design table, following final data collections, animals were euthanized. Histology was evaluated for eyes from Groups 5-6.
# [6] = male, Dutch Belted, rabbit, vitreous humor, topical or ocular, 630 ug, through day 180
# [7] = male, Dutch Belted, rabbit, vitreous humor, topical or ocular, 1260 ug, through day 180
compound,measurement,setting,value
"Cc1[nH]c(/C=C2\C(=O)Nc3ccc(F)cc32)c(C)c1C(=O)N[C@H]1CCN(C(=O)N(C)C)C1 [vorolanib, (S,Z)—N-(1-(Dimethylcarbamoyl)pyrrolidin-3-yl)-5-((5-fluoro-2-oxoindolin-3-ylidene)methyl)-2,4-dimethyl-1H-pyrrole-3-carboxamide]",change in plasma levels,[1]; after 99 days,No apparent change
same,vorolanib levels in the vitreous and the retina/choroid relative to IC50 for VEGFR,[1]; at the time points tested,remained significantly above the IC50 for VEGFR
same,retina/choroid level at steady state,"[1]; high dose 1,260 μg per eye",89 ng/g
same,vitreous level of vorolanib at steady state,"[1]; high dose 1,260 μg per eye (6 inserts)",97 ng/mL
same,steady state reached by,[1]; in vivo,≤ 105 days
same,burst period of drug release,"[1]; in vivo, before steady state",90 days
same,retina/choroid level at steady state,[1]; low dose 630 μg per eye,49 ng/g
same,vitreous level of vorolanib at steady state,[1]; low dose 630 μg per eye (3 inserts),56 ng/mL
same,Cmax,[1]; [6],232 ng/mL
same,Tmax,[1]; [6],14 days
same,AUC(0-t),[1]; [6],316 µg·h/mL
same,Cmax,[1]; [7],1700 ng/mL
same,AUC(0-t),[1]; [7],1580 µg·h/mL
same,vorolanib plasma levels in the PK study,[1]; plasma,low pg/mL range
same,solubility,[2],< 10 µg/mL
same,vorolanib plasma levels,[3]; plasma,low pg/mL range
same,adverse findings,[3]; up to 6 inserts per eye,No adverse findings
same,concentration at 10 months,"[4]; Dutch Belted, rabbit, in vivo",< 10 ng/mL
same,drop in mean vorolanib concentration in ocular tissues and plasma,"[4]; Dutch Belted, rabbit, in vivo",85%-99%
same,vorolanib exposure rank order,[4]; ocular tissues and plasma,choroid=retina=vitreous>aqueous humor>plasma
same,concentrations in target ocular tissues (choroid and retina) relative to IC50 for VEGFR2,[4]; through 8 months,above the IC50 for VEGFR2
"aflibercept: VEGF inhibitor (Regeneron), intravitreal injection, comparator in the swine CNV model",reduction in Corrected Total Lesion Fluorescence (CTLF) value,"[5]; Day 7 to Day 28, aflibercept 2 mg, 50 μL/eye IVT, Day 0",largest reduction in CTLF values
same,efficacy in the model,[5]; aflibercept 2 mg,normal amounts of efficacy
